Measured values from patent publication US6703485B2, “Brain and heart cyclic nucleotide gated ion channel compounds and uses thereof” (The Trustees of Columbia University in the City of New York, priority 1997, dated 2004).
“And” between values parts separate entries of the source, which are not always exact repeats. Equal values may be shown once.

Key:
mBCNG-1 channel = molecular target: T1, mBCNG-1 channel (Mus musculus, UniProt O88704); assay type: biochemical
T1 construct: expressed in transfected cells; host or cells: Xenopus oocytes injected with cRNA (pSD64TR vector, SP6 transcript); cell-free inside-out and outside-out patches

[1] = molecular target: T2, bovine photoreceptor CNG channels (Bos taurus, UniProt Q00194); conditions: Kramer and Tibbs, 1996; cited from earlier work
T2 sequence (Q00194 1-690): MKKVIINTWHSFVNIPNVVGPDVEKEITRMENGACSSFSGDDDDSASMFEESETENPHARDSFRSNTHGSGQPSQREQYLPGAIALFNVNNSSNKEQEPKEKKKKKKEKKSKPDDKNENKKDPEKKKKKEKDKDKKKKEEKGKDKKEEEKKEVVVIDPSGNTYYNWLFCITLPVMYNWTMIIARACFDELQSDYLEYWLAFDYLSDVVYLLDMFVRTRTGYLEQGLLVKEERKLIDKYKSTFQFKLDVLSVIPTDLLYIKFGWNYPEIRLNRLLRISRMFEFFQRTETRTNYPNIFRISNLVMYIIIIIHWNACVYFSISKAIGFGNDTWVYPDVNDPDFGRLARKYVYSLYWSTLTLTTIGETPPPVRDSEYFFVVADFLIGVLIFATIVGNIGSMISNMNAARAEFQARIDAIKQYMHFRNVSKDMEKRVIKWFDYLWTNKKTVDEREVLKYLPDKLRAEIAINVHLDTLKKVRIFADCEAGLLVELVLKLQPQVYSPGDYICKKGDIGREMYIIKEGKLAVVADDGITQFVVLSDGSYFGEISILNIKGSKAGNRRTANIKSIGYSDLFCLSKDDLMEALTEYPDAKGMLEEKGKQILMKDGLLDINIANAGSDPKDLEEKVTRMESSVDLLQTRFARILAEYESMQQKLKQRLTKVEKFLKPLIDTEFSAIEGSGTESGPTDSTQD

Pacemaker channel = conditions: myocardial ischemia, Schlack et al., 1998; cited from earlier work
Ih in sensory neurons = conditions: Ingram and Williams; cited from earlier work
[2] = system: Ih in hippocampal neurons; conditions: Pedarzani and Storm, 1995; cited from earlier work
If in sino-atrial node = conditions: DiFrancesco and Tortora, 1991; cited from earlier work

T1 sequence (O88704 whole entry): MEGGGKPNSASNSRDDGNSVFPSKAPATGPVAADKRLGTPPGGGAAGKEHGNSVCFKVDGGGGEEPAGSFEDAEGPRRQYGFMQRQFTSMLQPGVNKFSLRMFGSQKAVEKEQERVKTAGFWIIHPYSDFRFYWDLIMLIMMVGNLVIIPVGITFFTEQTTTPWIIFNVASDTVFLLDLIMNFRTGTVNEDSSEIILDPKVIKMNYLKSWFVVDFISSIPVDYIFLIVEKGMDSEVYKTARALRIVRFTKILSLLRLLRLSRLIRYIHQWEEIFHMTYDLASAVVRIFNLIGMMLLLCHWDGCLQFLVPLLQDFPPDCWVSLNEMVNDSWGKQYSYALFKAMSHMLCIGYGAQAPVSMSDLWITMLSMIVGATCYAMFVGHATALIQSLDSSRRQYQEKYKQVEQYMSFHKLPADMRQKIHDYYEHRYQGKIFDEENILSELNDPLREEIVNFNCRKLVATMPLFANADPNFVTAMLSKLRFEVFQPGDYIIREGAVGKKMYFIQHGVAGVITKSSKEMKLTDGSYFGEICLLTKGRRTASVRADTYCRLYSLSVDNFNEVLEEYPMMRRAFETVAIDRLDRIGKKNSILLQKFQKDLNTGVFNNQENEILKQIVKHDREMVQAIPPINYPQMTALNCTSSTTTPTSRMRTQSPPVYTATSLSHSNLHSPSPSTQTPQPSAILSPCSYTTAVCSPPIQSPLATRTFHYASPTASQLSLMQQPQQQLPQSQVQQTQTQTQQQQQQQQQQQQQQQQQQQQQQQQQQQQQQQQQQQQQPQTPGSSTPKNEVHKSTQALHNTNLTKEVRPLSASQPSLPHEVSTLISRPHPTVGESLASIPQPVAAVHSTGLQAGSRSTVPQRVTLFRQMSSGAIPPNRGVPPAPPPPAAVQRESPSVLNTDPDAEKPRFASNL

For `[Ba+2]` [Ba], the “mean percent inhibition of mBCNG-1 current” value (mBCNG-1 channel; 1 mM Ba in external solution, outside-out patch, n=3) was 0±5%.
For `[Cl-].[Cs+]` [Cs], the “% inhibition of mBCNG-1 current” value (mBCNG-1 channel) was 92.4±2.5%, the “Hill coefficient for inhibition of mBCNG-1 current by Cs” value (mBCNG-1 channel) was ~1 and 1.08 and the IC50 (mBCNG-1 channel; read-out: IC50 for inhibition of mBCNG-1 current by Cs) was ~200 µM and 201 µM.
For `Nc1nc2c(ncn2[C@@H]2O[C@@H]3COP(O)(=S)O[C@H]3[C@H]2O)c(=O)[nH]1` (stereo partly shown) [Rp-cGMPS], the “Effect on channel opening” value [1] is listed as “antagonist of channel opening”.
In the case of `Nc1nc2c(ncn2[C@@H]2O[C@@H]3COP(O)(=S)O[C@H]3[C@H]2O)c(=O)[nH]1` (stereo partly shown) [Sp-cGMPS], the “Effect on channel opening” value [1] is given as “agonist”.
For `CCN(c1ccccc1)c1cc(=NC)n(C)c(C)n1.Cl` [ZD 7288], the “Effect on infarct size” value (Pacemaker channel) is listed as “reduce infarct size”.
In the case of `Nc1ncnc2c1ncn2[C@@H]1O[C@@H]2COP(=O)(O)O[C@H]2[C@H]1O` [cAMP], the “cAMP-dependent shift of Ih” value (Ih in sensory neurons) is given as 4-6 mV, the “cAMP-dependent shift of Ih” value [2] is given as 2-3 mV and the “cAMP-dependent shift of If” value (If in sino-atrial node) is given as 10 mV.
